Key:
Test in all cases: Drug affinity chromatography with c-ponatinib and LC-MS/MS (ponatinib interactome)
Format in all cases: binding
[1] = molecular target: T1, proteins of U2OS cell lysate (Homo sapiens, UniProt O75533)
T1 construct: Proteins enriched by c-ponatinib from U2OS cell lysate; endogenous in cells; host or cells: U2OS cell lysate
Description: (§1) Drug affinity chromatography
(§2) U2OS cells were grown until approximately 80% confluent before being pelleted and washed with PBS. Cell pellets were subsequently lysed in buffer A (50 mM Tris pH 7.5, 0.8% v/v NP-40, 5% v/v glycerol, 1.5 mM MgCl2, 100 mM NaCl, 25 mM NaF, 1 mM Na3VO4, 1 mM PMSF, 1mM DTT, 10 μg/mL TLCK, 1 μg/ml Leupeptin, 1 μg/ml Aprotinin, 1 μg/ml soy bean trypsin) and lysates prepared […]
(§3) concentration was determined and lysates stored at -80 °C.
(§4) Briefly, 100 μl of bead slurry (50% in isopropanol) were used for each pulldown experiment. Beads were washed with DMSO (3 × 500 μl), and resuspended in DMSO (50 μl), to which the amine (0.025 μmol) and triethylamine (0.75 μl) were added. The beads were incubated at room temperature for 16 h, and depletion of free amine from the supernatant was determined by LC-MS analysis. Ethanolamine (2.5 μl) was then added to block any unreacted NHS sites, and the beads incubated for a further 16 h. Derivatized beads were then washed with DMSO (3 × 500 μl), buffer A (3 × 1 ml), and incubated with cell lysates (2 mg of protein per pulldown, at 6 […]
(§5) Beads and treated lysates were incubated for 2 h at 4 °C before washing with buffer A (5 ml), Buffer B (50 mM HEPES pH 7.5, 100 mM NaCl, 500 μM EDTA, 2.5 ml), and eluted with formic acid (100 mM, 250 μl). Samples were neutralized with triethylammoniumbicarbonate (TEAB, 1M, 62.5 μl) and stored at -20 °C until preparation for proteomic analysis.
(§6) Samples were reduced with DTT (10 mM final concentration) for 30 min at room temperature, alkylated with iodoacetamide (55 mM final concentration) for 30 min at room temperature, diluted to 300 μl with TEAB, and incubated with trypsin (6 μl, 0.2 mg/ml) overnight at 37 °C. The digests were desalted using SEPAC lite columns (Waters), eluted with 69 % v/v MeCN, 0.1 % v/v FA in H2O (1 ml) and dried in vacuo. Dried peptides were stored at -20 °C before resuspension in 2 % v/v MeCN, 1 % v/v FA in H2O (20 μl) for LC-MS/MS analysis.
(§7) LC-MS/MS data acquisition
(§8) Mass spectrometry data was acquired at the Discovery Proteomics Facility (University of Oxford).
(§9) Digested samples were analyzed by nano-UPLC–MS/MS using a Dionex Ultimate 3000 nano UPLC with EASY spray column (75 μm × 500 mm, 2 μm particle size, Thermo Fisher Scientific) with a 60 min gradient of 0.1 % (v/v) formic acid in 5 % (v/v) DMSO to 0.1 % (v/v) formic acid with 35 % (v/v) acetonitrile in 5 % (v/v) DMSO at a flow rate of approximately 250 nl min−1 (600 bar per 40 °C column temperature). Mass spectrometry data was acquired either with an Orbitrap Q Exactive (Survey scans acquired at a resolution of 70,000 @ 200m/z and the 15 most abundant precursors were selected for HCD fragmentation), or an Orbitrap Q Exactive High Field (HF) instrument (survey scans were […]

[2] = molecular target: T2, proteins of U2OS cell lysate (Homo sapiens, UniProt O75964)
T2 construct: Proteins enriched by c-ponatinib from U2OS cell lysate; endogenous in cells; host or cells: U2OS cell lysate
Description: as §1, §2, §3, §4, §5, §6, §7, §8, §9

[3] = molecular target: T3, proteins of U2OS cell lysate (Homo sapiens, UniProt P07900)
T3 construct: Proteins enriched by c-ponatinib from U2OS cell lysate; endogenous in cells; host or cells: U2OS cell lysate
Description: as §1, §2, §3, §4, §5, §6, §7, §8, §9

[4] = molecular target: T4, proteins of U2OS cell lysate (Homo sapiens, UniProt P10515)
T4 construct: Proteins enriched by c-ponatinib from U2OS cell lysate; endogenous in cells; host or cells: U2OS cell lysate
Description: as §1, §2, §3, §4, §5, §6, §7, §8, §9

[5] = molecular target: T5, proteins of U2OS cell lysate (Homo sapiens, UniProt P12814)
T5 construct: Proteins enriched by c-ponatinib from U2OS cell lysate; endogenous in cells; host or cells: U2OS cell lysate
Description: as §1, §2, §3, §4, §5, §6, §7, §8, §9

[6] = molecular target: T6, proteins of U2OS cell lysate (Homo sapiens, UniProt P29597)
T6 construct: Proteins enriched by c-ponatinib from U2OS cell lysate; endogenous in cells; host or cells: U2OS cell lysate
Description: as §1, §2, §3, §4, §5, §6, §7, §8, §9

[7] = molecular target: T7, proteins of U2OS cell lysate (Homo sapiens, UniProt P36957)
T7 construct: Proteins enriched by c-ponatinib from U2OS cell lysate; endogenous in cells; host or cells: U2OS cell lysate
Description: as §1, §2, §3, §4, §5, §6, §7, §8, §9

[8] = molecular target: T8, proteins of U2OS cell lysate (Homo sapiens, UniProt P52907)
T8 construct: Proteins enriched by c-ponatinib from U2OS cell lysate; endogenous in cells; host or cells: U2OS cell lysate
Description: as §1, §2, §3, §4, §5, §6, §7, §8, §9

[9] = molecular target: T9, proteins of U2OS cell lysate (Homo sapiens, UniProt P62701)
T9 construct: Proteins enriched by c-ponatinib from U2OS cell lysate; endogenous in cells; host or cells: U2OS cell lysate
Description: as §1, §2, §3, §4, §5, §6, §7, §8, §9

[10] = molecular target: T10, proteins of U2OS cell lysate (Homo sapiens, UniProt Q01130)
T10 construct: Proteins enriched by c-ponatinib from U2OS cell lysate; endogenous in cells; host or cells: U2OS cell lysate
Description: as §1, §2, §3, §4, §5, §6, §7, §8, §9

[11] = molecular target: T11, proteins of U2OS cell lysate (Homo sapiens, UniProt Q13247)
T11 construct: Proteins enriched by c-ponatinib from U2OS cell lysate; endogenous in cells; host or cells: U2OS cell lysate
Description: as §1, §2, §3, §4, §5, §6, §7, §8, §9

[12] = molecular target: T12, proteins of U2OS cell lysate (Homo sapiens, UniProt Q13409)
T12 construct: Proteins enriched by c-ponatinib from U2OS cell lysate; endogenous in cells; host or cells: U2OS cell lysate
Description: as §1, §2, §3, §4, §5, §6, §7, §8, §9

[13] = molecular target: T13, proteins of U2OS cell lysate (Homo sapiens, UniProt Q15459)
T13 construct: Proteins enriched by c-ponatinib from U2OS cell lysate; endogenous in cells; host or cells: U2OS cell lysate
Description: as §1, §2, §3, §4, §5, §6, §7, §8, §9

[14] = molecular target: T14, proteins of U2OS cell lysate (Homo sapiens, UniProt Q99460)
T14 construct: Proteins enriched by c-ponatinib from U2OS cell lysate; endogenous in cells; host or cells: U2OS cell lysate
Description: as §1, §2, §3, §4, §5, §6, §7, §8, §9

[15] = molecular target: T15, proteins of U2OS cell lysate (Homo sapiens, UniProt Q9BWU1)
T15 construct: Proteins enriched by c-ponatinib from U2OS cell lysate; endogenous in cells; host or cells: U2OS cell lysate
Description: as §1, §2, §3, §4, §5, §6, §7, §8, §9

[16] = molecular target: T16, proteins of U2OS cell lysate (Homo sapiens, UniProt Q9NVA2)
T16 construct: Proteins enriched by c-ponatinib from U2OS cell lysate; endogenous in cells; host or cells: U2OS cell lysate
Description: as §1, §2, §3, §4, §5, §6, §7, §8, §9

[17] = molecular target: T17, proteins of U2OS cell lysate (Homo sapiens, UniProt Q9UBN7)
T17 construct: Proteins enriched by c-ponatinib from U2OS cell lysate; endogenous in cells; host or cells: U2OS cell lysate
Description: as §1, §2, §3, §4, §5, §6, §7, §8, §9

[18] = molecular target: T18, proteins of U2OS cell lysate (Homo sapiens, UniProt Q9UP83)
T18 construct: Proteins enriched by c-ponatinib from U2OS cell lysate; endogenous in cells; host or cells: U2OS cell lysate
Description: as §1, §2, §3, §4, §5, §6, §7, §8, §9

T15 sequence (Q9BWU1 whole entry): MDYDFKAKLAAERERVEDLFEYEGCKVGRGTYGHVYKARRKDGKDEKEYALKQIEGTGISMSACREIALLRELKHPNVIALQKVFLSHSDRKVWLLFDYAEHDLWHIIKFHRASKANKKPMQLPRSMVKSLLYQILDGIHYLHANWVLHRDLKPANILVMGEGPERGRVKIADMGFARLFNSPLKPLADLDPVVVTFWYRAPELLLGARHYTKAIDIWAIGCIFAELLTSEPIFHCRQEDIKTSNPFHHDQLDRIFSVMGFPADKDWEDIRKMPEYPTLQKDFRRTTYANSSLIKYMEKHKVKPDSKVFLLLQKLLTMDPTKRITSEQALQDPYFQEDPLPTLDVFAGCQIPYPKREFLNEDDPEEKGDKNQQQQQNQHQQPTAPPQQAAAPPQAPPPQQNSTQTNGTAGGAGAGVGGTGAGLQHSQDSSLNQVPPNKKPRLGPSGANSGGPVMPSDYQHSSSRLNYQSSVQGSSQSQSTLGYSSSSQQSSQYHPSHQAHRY
T1 sequence (O75533 whole entry): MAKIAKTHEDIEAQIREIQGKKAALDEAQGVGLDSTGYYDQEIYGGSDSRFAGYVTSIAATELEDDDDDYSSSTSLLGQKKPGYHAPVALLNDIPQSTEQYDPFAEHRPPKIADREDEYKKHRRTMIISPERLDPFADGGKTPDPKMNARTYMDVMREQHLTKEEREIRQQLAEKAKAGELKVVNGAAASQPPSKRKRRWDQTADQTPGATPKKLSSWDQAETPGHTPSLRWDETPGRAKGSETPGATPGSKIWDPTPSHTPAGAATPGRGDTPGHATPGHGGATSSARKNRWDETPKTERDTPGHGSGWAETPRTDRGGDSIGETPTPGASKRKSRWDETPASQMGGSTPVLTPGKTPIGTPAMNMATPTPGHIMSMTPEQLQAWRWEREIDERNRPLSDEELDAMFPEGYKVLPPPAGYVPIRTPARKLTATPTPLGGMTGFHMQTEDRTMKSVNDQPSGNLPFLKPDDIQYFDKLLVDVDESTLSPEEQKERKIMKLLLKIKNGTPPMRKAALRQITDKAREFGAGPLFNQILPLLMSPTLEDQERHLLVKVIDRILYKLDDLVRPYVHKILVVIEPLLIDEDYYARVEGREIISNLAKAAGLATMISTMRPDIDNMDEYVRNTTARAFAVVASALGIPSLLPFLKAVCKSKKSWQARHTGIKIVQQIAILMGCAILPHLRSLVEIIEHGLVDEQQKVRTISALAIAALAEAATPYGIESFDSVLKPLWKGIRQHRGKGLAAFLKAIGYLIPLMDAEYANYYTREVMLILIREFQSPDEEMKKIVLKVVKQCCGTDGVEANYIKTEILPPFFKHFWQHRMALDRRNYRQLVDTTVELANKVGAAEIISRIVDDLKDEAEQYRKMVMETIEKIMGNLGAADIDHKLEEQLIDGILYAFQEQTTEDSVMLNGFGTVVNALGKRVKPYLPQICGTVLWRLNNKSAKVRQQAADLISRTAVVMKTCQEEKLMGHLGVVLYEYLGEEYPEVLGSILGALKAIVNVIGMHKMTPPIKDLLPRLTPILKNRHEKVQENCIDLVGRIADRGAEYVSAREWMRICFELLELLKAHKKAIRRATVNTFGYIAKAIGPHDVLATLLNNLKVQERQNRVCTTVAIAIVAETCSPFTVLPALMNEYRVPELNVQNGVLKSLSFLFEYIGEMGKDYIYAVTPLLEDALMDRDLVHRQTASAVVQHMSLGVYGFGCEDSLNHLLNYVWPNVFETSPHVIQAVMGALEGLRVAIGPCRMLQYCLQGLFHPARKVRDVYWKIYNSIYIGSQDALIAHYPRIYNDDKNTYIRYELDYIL
T10 sequence (Q01130 whole entry): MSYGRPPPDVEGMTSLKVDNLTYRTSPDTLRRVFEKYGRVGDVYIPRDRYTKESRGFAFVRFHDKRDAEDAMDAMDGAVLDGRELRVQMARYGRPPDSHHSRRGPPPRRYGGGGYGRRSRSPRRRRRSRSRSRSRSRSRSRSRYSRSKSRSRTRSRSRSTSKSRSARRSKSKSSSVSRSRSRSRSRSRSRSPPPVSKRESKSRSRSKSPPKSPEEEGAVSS
T6 sequence (P29597 whole entry): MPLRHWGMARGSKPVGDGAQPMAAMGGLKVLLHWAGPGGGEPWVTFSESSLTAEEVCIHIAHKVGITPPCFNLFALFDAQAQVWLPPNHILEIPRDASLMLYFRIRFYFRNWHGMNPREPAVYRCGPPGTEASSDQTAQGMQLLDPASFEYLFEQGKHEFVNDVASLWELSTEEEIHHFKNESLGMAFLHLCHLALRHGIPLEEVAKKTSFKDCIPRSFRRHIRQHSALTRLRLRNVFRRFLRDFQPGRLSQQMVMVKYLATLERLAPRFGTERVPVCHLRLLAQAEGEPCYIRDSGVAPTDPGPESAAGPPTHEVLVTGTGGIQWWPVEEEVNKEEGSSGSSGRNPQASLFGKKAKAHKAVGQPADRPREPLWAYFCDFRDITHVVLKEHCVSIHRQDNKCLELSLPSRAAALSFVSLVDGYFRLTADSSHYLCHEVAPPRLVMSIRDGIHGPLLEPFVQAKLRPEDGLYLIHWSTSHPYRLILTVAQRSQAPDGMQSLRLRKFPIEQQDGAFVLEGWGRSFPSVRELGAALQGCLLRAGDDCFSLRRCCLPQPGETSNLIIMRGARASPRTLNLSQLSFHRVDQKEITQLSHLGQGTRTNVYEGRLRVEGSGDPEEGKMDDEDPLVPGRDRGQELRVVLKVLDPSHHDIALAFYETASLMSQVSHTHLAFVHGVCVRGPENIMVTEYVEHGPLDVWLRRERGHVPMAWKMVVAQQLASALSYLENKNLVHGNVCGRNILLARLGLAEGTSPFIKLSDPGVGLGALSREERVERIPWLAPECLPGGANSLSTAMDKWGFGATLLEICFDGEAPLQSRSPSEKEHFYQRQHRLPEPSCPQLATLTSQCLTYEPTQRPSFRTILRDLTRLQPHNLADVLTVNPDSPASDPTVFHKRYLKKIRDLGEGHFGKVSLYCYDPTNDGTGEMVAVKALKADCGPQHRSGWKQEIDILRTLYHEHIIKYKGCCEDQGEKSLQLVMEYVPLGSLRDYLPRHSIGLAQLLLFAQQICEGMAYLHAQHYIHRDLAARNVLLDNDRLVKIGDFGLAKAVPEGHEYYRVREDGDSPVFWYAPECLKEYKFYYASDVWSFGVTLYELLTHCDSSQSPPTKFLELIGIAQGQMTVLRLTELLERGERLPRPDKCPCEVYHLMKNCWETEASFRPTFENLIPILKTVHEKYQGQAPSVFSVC
T17 sequence (Q9UBN7 whole entry): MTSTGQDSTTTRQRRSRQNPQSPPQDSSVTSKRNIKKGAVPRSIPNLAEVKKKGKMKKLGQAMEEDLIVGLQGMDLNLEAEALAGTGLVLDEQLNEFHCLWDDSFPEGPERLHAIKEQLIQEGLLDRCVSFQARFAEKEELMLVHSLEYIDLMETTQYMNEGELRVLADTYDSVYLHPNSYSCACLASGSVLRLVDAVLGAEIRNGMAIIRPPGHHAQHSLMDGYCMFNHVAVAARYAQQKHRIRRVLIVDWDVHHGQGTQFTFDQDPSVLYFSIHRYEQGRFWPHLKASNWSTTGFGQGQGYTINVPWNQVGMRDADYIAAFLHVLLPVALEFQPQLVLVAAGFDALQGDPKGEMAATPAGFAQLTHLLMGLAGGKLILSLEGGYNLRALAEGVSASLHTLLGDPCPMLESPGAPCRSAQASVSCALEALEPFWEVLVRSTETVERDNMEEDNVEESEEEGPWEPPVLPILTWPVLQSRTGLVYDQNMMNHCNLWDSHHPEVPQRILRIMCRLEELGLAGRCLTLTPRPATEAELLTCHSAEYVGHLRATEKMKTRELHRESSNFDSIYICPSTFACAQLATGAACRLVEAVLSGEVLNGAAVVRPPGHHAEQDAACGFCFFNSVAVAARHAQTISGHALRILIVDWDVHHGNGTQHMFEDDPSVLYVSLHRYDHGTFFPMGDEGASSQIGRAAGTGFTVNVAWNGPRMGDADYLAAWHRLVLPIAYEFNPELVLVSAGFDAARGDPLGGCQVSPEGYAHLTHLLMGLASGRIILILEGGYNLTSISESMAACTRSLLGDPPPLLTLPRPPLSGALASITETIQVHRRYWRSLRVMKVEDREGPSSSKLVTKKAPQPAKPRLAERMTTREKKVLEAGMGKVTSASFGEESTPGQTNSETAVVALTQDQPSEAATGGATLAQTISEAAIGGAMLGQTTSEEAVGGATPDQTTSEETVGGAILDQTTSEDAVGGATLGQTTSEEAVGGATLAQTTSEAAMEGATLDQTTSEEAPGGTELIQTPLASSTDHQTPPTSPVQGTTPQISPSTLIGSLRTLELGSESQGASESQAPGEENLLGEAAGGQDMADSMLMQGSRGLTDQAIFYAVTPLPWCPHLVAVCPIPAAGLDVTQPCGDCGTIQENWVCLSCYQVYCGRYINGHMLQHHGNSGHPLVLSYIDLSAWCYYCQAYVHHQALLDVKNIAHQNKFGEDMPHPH
T7 sequence (P36957 68-453): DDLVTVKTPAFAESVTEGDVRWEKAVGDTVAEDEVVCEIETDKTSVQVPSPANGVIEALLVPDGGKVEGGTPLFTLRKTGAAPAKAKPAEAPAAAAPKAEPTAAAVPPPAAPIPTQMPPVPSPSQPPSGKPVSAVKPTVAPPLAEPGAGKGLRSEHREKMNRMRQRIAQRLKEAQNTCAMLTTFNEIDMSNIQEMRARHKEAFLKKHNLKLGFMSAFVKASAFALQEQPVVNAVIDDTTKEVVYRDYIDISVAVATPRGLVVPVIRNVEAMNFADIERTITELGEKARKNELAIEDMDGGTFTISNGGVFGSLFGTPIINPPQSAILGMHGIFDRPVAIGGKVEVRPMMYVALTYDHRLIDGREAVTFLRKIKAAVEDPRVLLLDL
T2 sequence (O75964 whole entry): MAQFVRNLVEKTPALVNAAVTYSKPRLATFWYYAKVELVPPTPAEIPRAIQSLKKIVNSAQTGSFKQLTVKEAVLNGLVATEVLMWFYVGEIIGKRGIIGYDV

Cc1ccc(C(=O)Nc2ccc(CN3CCN(C)CC3)c(C(F)(F)F)c2)cc1C#Cc1cnc2cccnn12 [PON]
Average LFQ PON_WT ([1]; SF3B1, Splicing factor 3B subunit 1): 22.352 | Average LFQ PON_WT ([2]; ATP5L, ATP synthase subunit g, mitochondrial): 22.9891 | Average LFQ PON_WT ([3]; HSP90AA1, Heat shock protein HSP 90-alpha): 21.9345 | Average LFQ PON_WT ([4]; DLAT, Dihydrolipoyllysine-residue acetyltransferase component of pyruvate dehydrogenase complex, mitochondrial): 21.6984 | Average LFQ PON_WT ([5]; ACTN1, Alpha-actinin-1): 22.3393 | Average LFQ PON_WT ([6]; TYK2, Non-receptor tyrosine-protein kinase TYK2): 22.5645 | Average LFQ PON_WT ([7]; DLST, Dihydrolipoyllysine-residue succinyltransferase component of 2-oxoglutarate dehydrogenase complex, mitochondrial): 21.6592 | Average LFQ PON_WT ([8]; CAPZA1, F-actin-capping protein subunit alpha-1): 21.8548 | Average LFQ PON_WT ([9]; RPS4X, 40S ribosomal protein S4, X isoform): 22.7536 | Average LFQ PON_WT ([10]; SRSF2, Serine/arginine-rich splicing factor 2): 22.8743 | Average LFQ PON_WT ([11]; SRSF6, Serine/arginine-rich splicing factor 6): 21.8714 | Average LFQ PON_WT ([12]; DYNC1I2, Cytoplasmic dynein 1 intermediate chain 2): 22.2038 | Average LFQ PON_WT ([13]; SF3A1, Splicing factor 3A subunit 1): 21.9763 | Average LFQ PON_WT ([14]; PSMD1, 26S proteasome non-ATPase regulatory subunit 1): 21.8552 | Average LFQ PON_WT ([15]; CDK19, Cyclin-dependent kinase 19): 21.5435 | Average LFQ PON_WT ([16]; SEPT11, Septin-11): 21.5746 | Average LFQ PON_WT ([17]; HDAC6, Histone deacetylase 6): 22.8295 | Average LFQ PON_WT ([18]; COG5, Conserved oligomeric Golgi complex subunit 5): 22.09

Cc1ccc(C(=O)Nc2ccc(CN3CCN(CCCN)CC3)c(C(F)(F)F)c2)cc1C#Cc1cnc2cccnn12 [c-ponatinib, reference compound]
Average LFQ intensity ([1]; captured protein SF3B1, Rank 165): 22.352 | Average LFQ intensity ([2]; captured protein ATP5L, Rank 125): 22.9891 | Average LFQ intensity ([3]; captured protein HSP90AA1, Rank 195): 21.9345 | Average LFQ intensity ([4]; captured protein DLAT, Rank 215): 21.6984 | Average LFQ intensity ([5]; captured protein ACTN1, Rank 166): 22.3393 | Average LFQ intensity ([6]; captured protein TYK2, Rank 155): 22.5645 | Average LFQ intensity ([7]; captured protein DLST, Rank 218): 21.6592 | Average LFQ intensity ([8]; captured protein CAPZA1, Rank 200): 21.8548 | Average LFQ intensity ([9]; captured protein RPS4X, Rank 140): 22.7536 | Average LFQ intensity ([10]; captured protein SRSF2, Rank 132): 22.8743 | Average LFQ intensity ([11]; captured protein SRSF6, Rank 196): 21.8714 | Average LFQ intensity ([12]; captured protein DYNC1I2, Rank 179): 22.2038 | Average LFQ intensity ([13]; captured protein SF3A1, Rank 193): 21.9763 | Average LFQ intensity ([14]; captured protein PSMD1, Rank 199): 21.8552 | Average LFQ intensity ([15]; captured protein CDK19, Rank 226): 21.5435 | Average LFQ intensity ([16]; captured protein 2011-09-01 (Septin-11), Rank 222): 21.5746 | Average LFQ intensity ([17]; captured protein HDAC6, Rank 137): 22.8295 | Average LFQ intensity ([18]; captured protein COG5, Rank 186): 22.09

From paper PMC6120666 (The EMBO Journal, 2018)
